Here are results for six molecules from patent US5654282A, “Selectin binding glycopeptides” (Glycomed Incorporated, priority 1995, dated 1997).

For test [1], the system named is L-selectin. Kind of test: Stamper-Woodruff assay (lymphocyte adhesion to HEV of lymph node frozen sections). It counts as cell-based, Swiss Webster mice; Sprague-Dawley rats. As to conditions: FIG. 7; lymphocyte binding to HEV, percent of relative binding; values only in the figure.
Description: (§1) Lymphocytes are known to circulate from blood to lymphoid tissues via high endothelial venules (HEV) on lymph nodes. L-selectin is expressed on the surface of lymphocytes and is believed to mediate lymphocyte adhesion by binding to the natural ligand on the HEV. The glyco-amino acids or glycopeptides of structural formula I can be tested for their ability to bind to a selectin receptor and/or block the binding site of the receptor and thereby prevent a natural ligand from binding to the selectin receptor. See, for example, Stoolman et al, The Journal of Cell Biology (1983) 96:722. The Stamper-Woodruff assay is well known in the art, and generally consists of the following three steps:
1. Preparation of the lymphocytes:
(a) The lymphocytes are obtained from the mesenteric nodes of female Swiss Webster mice, by gently teasing tissues with phosphate buffered saline (PBS). The cells are obtained by gently squeezing the cells from the tissues. The cells are dispersed and the cell clumps are removed. The single cell suspension is suspended, washed, and kept on ice until use (less than two hours). Cells are counted and prepared at an appropriate concentration.
(b) The superficial and deep cervical lymph nodes of female Sprague-Dawley rats are dissected and prepared in the same way as the mice.
2. Preparation of frozen sections:
Superficial or deep cervical lymph nodes are dissected from the animals, snap frozen, and immediately placed in a cryostat for sectioning. 10-μm sections are prepared and transferred onto glass slides, and air dried.
3. Potential inhibitors are added to lymphocyte suspensions 10-30 minutes before the start of the binding assay, and unless otherwise stated, are present throughout the subsequent binding incubation.
The frozen sections are used in the order in which they are cut. Aliquots of untreated lymphocytes (positive control), suspensions containing fucoidin (negative control) and suspensions containing potential inhibitors are layered on the sections in an arbitrary sequence such that the control and each test substance are represented once in a series.
The binding of the lymphocytes to the HEV is easily distinguishable from binding elsewhere by virtue of the characteristic picture of tightly packed, darkly stained lymphocytes overlaying the histologically distinctive HEV. The number of adherent lymphocytes on each HEV are counted and the average number of adherent cells per HEV (cells bound per HEV) is calculated. The results are expressed as a percent of relative binding, wherein the positive control is considered to be 100% binding.
as §1, with “were” for “can be”
(a) The lymphocytes were obtained from the mesenteric nodes of female Swiss Webster mice (23-27 g), by gently teasing tissues by phosphate buffered saline (PBS). […] Cells were counted and prepared at 3-4×10^7 cells/ml. […]

For test [2], the system named is P-selectin. Kind of test: P-Selectin/HL-60 assay. It counts as cell-based. Particulars: FIG. 6; HL-60 cells; tested at several concentrations; values only in the figure. An excerpt:
The glyco-amino acids or glycopeptides of structural formula I can be tested for their ability to inhibit P-selectin binding to its native ligand. A generalized procedure for testing the ligands is given below. A P-selectin/HL-60 assay is preferably used which consists of the following steps:
1. HL-60 cells are harvested and pelleted by centrifugation. The cells are washed, counted and the volume adjusted appropriately.
2. PVC microtiter plate is blocked with a blocking agent, and washed with TBS-BSA.
3. P-selectin is diluted appropriately in BSA-TBS Ca containing goat F(ab')2 anti-human IgG (Fc spec) and streptavidin-alkaline phosphatase. Positive controls have DMF added to equal the highest concentration of DMF in the sample compounds.
4. Ligands are incubated at room temperature with brisk rotation. […]
Para-nitrophenylphosphonate is added to the plate. […] Aliqouts from each well is transferred to a polystyrene microtiter plate and O.D. read at 405 nm. […] The signal produced by the receptor that is previously treated with an inhibitor (recorded as O.D.), is divided by the signal produced by the positive control and multiplied by 100 to calculate the % receptor bound to the well in the presence of the inhibitor. […]
1. […] The cells were washed three times with TBS without Ca, counted and the volume adjusted to 1.9×10^6 /ml in 1% BSA-TBS Ca just prior to use. […]

In test [3] the test system is L-selectin. Kind of test: ELISA assay, selectin-IgG chimera binding to 2,3 sLex glycolipid (L-selectin). As to conditions: FIG. 4; tested at several concentrations; results expressed as percent of control binding; values only in the figure. The method, then: (§2) An ELISA assay (Foxall et al, The Journal of Cell Biology (1992) 117:895) is preferably used which consists of the following three steps:
(§3) 1. 2,3 sLex glycolipid is transferred into microtitre wells as solutions and then evaporated off. Excess, which remained unattached, is washed off with water. The wells are then blocked with a blocking agent, preferably BSA.
(§4) 2. Preparation of "multivalent" receptor of the Selectin-IgG chimera is carried out by combining the respective chimera with biotin labelled goat F(ab')2 anti-human IgG (Fc specific) and streptavidin-alkaline phosphatase diluted appropriately and incubated. This allows the soluble multivalent receptor complex to form.
(§5) 3. Potential inhibitors such as glyco-amino acids or glycopeptides of structural formula I are allowed to react with the soluble receptor. This solution is then placed in the microtitre wells that are prepared in step 1. The plate is incubated to allow the soluble receptor to bind to its natural ligand. In the presence of a strong inhibitor only a few of the receptors should be free to bind to the microtitre plate coated with the natural ligand.
(§6) The positive control is the signal produced by the soluble receptor when it is allowed to react with the natural ligand in the microtitre wells in the absence of any inhibitor. This is considered 100% binding. The signal produced by the receptor that is previously treated with an inhibitor (recorded as O.D.), is divided by the signal produced by the positive control and multiplied by 100 to calculate the % receptor bound to the well in the presence of the inhibitor. The reciprocal of this is the % inhibition.
(§7) The glyco-amino acids or glycopeptides of structural formula I can be tested for their ability to bind to a selectin receptor and/or block the binding site of the receptor and thereby prevent a natural ligand from binding to the selectin receptor (Foxall et al, The Journal of Cell Biology (1992) 117:895). A generalized procedure for testing the ligands is given below.
(§8) An ELISA assay is preferably used which consisted of the following three steps:
1. 2,3 sLex glycolipid (25 picomol/well) was transferred into microtitre wells as solutions and evaporated off. Excess, which remained unattached, was washed off with water. The wells were blocked with 5% BSA at room temperature for an hour and washed with PBS containing 1 mM calcium.
2. Preparation of "multivalent" receptor of the Selectin-IgG chimera was carried out by combining the respective chimera (1 μg/mL) with biotin labelled goat F(ab')2 anti-human IgG (Fc specific) and streptavidin-alkaline phosphatase diluted 1:1000 in 1% BSA-PBS (1 mM calcium) and incubating at 37° C. for 15 min. This allowed the soluble multivalent receptor complex to form.
3. Potential inhibitors such as glyco-amino acids or glycopeptides of structural formula I were allowed to react with the soluble receptor at 37° C. for 45 min. This test assumes that optimal binding, between the soluble phase receptor complex and the inhibitor (non-natural ligand), would occur within this time frame. This solution was placed in the microtitre wells that were prepared in step 1. The plate was incubated at 37° C. for 45 minutes to allow the soluble receptor to bind to its natural ligand. In the presence of a strong inhibitor only a few receptors would be free to bind to the microtitre plate coated with the natural ligand.
The positive control was the signal produced by the soluble receptor when it was allowed to react with the natural ligand in the microtitre wells in the absence of any inhibitor. This was considered 100% binding. The signal produced by the receptor that was previously treated with an inhibitor (recorded as O.D.), was divided by the signal produced by the positive control and multiplied by 100 to calculate the % receptor bound to the well in the presence of the inhibitor. The reciprocal of this is the % inhibition.
(In an ELISA, binding on a coated surface is turned into a signal by an enzyme label.)

The test system of test [4] is P-selectin. The experiment in a line: ELISA assay, selectin-IgG chimera binding to 2,3 sLex glycolipid (P-selectin). As to conditions: FIG. 5; tested at several concentrations; results expressed as percent of control binding; values only in the figure. As for the experimental part:
as §2, §3, §4, §5, §6, §7, §8
1. 2,3 sLex glycolipid (25 picomol/well) was transferred into microtitre wells as solutions and evaporated off. Excess, which remained unattached, was washed off with water. […]
The positive control was the signal produced by the soluble receptor when it was allowed to react with the natural ligand in the microtitre wells in the absence of any inhibitor. […] The signal produced by the receptor that was previously treated with an inhibitor (recorded as O.D.), was divided by the signal produced by the positive control and multiplied by 100 to calculate the % receptor bound to the well in the presence of the inhibitor. […]

Turning to `C[C@H](NC(=O)C[C@@H]1O[C@@H](C)[C@@H](O)[C@@H](O)[C@@H]1O)C(=O)N1CCC[C@H]1C(=O)N[C@@H](Cc1ccccc1)C(=O)O` [#2, N-[(1-deoxy-α-L-fucopyranosyl)acetyl]-L-alanine-L-proline-L-phenylalanine], the “inhibitory effects in the Stamper-Woodruff assay (cell adhesion)” value (“inhibitory effects … (cell adhesion)” below) in test [1] is on record as “inhibitory effects”. Moreover, the “inhibition of the binding of sLe^x to P-selectin in the HL-60 assay” value in test [2] was “inhibit the binding of sLe^x to P-selectin”. Further, in test [3], the “inhibition of the binding of sLe^x to L-selectin” value (from here on “inhibition … to L-selectin”) is “inhibit the binding of sLe^x to L-selectin”.

Take `CC1OC(CCCC(=O)NC(Cc2ccccc2)C(=O)O)C(O)C(O)C1O` [#6, N-[4-(1-deoxy-α-L-fucopyranosyl)n-butanoyl]-L-phenylalanine]: the “inhibition … to L-selectin” value in test [3] was “inhibit the binding of sLe^x to L-selectin”.

With `C[C@@H]1O[C@@H](CC(=O)N[C@@H](CCCCNC(=O)OC(C)(C)C)C(=O)O)[C@@H](O)[C@H](O)[C@@H]1O` [#3, N-ω-t-butoxylcarbonyl-N-α-[(1-deoxy-α-L-fucopyranosyl)acetyl]-L-lysine], the “inhibitory effects … (cell adhesion)” value in test [1] is “inhibitory effects”. Further, in test [4], the “inhibition of the binding of sLe^x to P-selectin” value is reported as “inhibit the binding of sLe^x to P-selectin”. For the same molecule, the “inhibition … to L-selectin” value in test [3] is listed as “inhibit the binding of sLe^x to L-selectin”.

On to `C[C@@H]1O[C@@H](CC(=O)N2CCC[C@H]2C(=O)N[C@H](C(=O)O)c2ccccc2)[C@@H](O)[C@H](O)[C@@H]1O` [#5, N-[(1-deoxy-α-L-fucopyranosyl)acetyl]-L-proline-L-phenylglycine], for which, in test [1], the “inhibitory effects … (cell adhesion)” value is “inhibitory effects”. Moreover, in test [4], the “inhibition of the binding of sLe^x to P-selectin” value is “inhibit the binding of sLe^x to P-selectin”. In addition, in test [3], the “inhibition … to L-selectin” value was “inhibit the binding of sLe^x to L-selectin”.

Take `C[C@@H]1O[C@@H](CCCC(=O)N2CCC[C@H]2C(=O)N[C@@H](Cc2ccccc2)C(=O)O)[C@@H](O)[C@H](O)[C@@H]1O` [#4, N-[4-(1-deoxy-α-L-fucopyranosyl)n-butanoyl]-L-proline-L-phenylalanine]: the “inhibitory effects … (cell adhesion)” value in test [1] is given as “inhibitory effects”. Also, the “inhibition of the binding of sLe^x to P-selectin” value in test [4] is “inhibit the binding of sLe^x to P-selectin”. In addition, the “inhibition … to L-selectin” value in test [3] is “inhibit the binding of sLe^x to L-selectin”.

Turning to `C[C@@H]1O[C@@H](CC(=O)N2CCC[C@H]2C(=O)N[C@@H](Cc2ccccc2)C(=O)O)[C@@H](O)[C@H](O)[C@@H]1O` [#1, N-[(1-deoxy-α-L-fucopyranosyl)acetyl]-L-proline-L-phenylalanine], the “inhibitory effects … (cell adhesion)” value in test [1] was “inhibitory effects”. Besides, in test [2], the “inhibition of the binding of sLe^x to P-selectin in the HL-60 assay” value is listed as “inhibit the binding of sLe^x to P-selectin”. The “inhibition of the binding of sLe^x to P-selectin” value in test [4] was “inhibit the binding of sLe^x to P-selectin”. The “inhibition … to L-selectin” value in test [3] is reported as “inhibit the binding of sLe^x to L-selectin”.
